The assay has as its target T1, human ALK5 (Homo sapiens, UniProt P36897).
T1 construct: human ALK5 (recombinant TGF β1 N-term GST-tagged, 80-end); GST (N); purchased
T1 sequence (P36897 80-503 limits assumed): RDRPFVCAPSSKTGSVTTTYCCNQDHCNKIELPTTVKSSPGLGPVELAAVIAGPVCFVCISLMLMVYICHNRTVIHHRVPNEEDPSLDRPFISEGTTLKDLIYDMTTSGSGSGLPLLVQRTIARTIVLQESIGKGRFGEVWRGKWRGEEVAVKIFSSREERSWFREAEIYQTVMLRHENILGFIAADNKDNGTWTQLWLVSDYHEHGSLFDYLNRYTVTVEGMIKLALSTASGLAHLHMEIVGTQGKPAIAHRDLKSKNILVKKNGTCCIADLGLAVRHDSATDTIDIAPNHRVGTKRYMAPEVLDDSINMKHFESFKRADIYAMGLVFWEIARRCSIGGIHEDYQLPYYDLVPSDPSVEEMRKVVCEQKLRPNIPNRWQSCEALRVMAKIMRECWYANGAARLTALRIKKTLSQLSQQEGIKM
Nature of the assay: ADP-GLO Kinases assay of ALK5 enzymatic activity. It is filed as biochemical. Conditions: purified recombinant human ALK5, TGFβ1 peptide substrate, pIC50 converted to pKi by Cheng-Prusoff, high ATP protocol (15 μM) for very potent compounds, 25° C. The procedure, abridged:
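Purified ALK5 preincubated 15 min with compound, then reacted with substrate and ATP; ADP formed read by ADP-Glo luminescence after 120 min or 60 min reaction, all steps at 25° C. 11-point concentration-response; pIC50 converted to pKi via Cheng-Prusoff.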
For orientation: ADP-Glo turns the ADP formed in a reaction into a luminescent signal.

The Ki is the equilibrium dissociation constant of an inhibitor or competing ligand from its target.

As to `CN1CCN(CC23CC(C(=O)Nc4cc(Nc5cc(-c6cc(Cl)ccc6F)nnc5SCCO)ccn4)(C2)C3)CC1` [Example 180, N-(4-{[6-(5-chloro-2-fluorophenyl)-3-[(2-hydroxyethyl)sulfanyl]pyridazin-4-yl]amino}pyridin-2-yl)-3-[(4-methylpiperazin-1-yl)methyl]bicyclo[11.1.1]pentane-1-carboxamide], the Ki was at most 0.1 nM.

With `CN1CCN(CCC(=O)Nc2cc(Nc3cc(-c4cc(Cl)ccc4F)nnc3N(C)C)ccn2)CC1` [Example 30, N-(4-{[6-(5-chloro-2-fluorophenyl)-3-(dimethylamino)pyridazin-4-yl]amino}pyridin-2-yl)-3-(4-methylpiperazin-1-yl)propanamide], the Ki is at most 0.1 nM.

In the case of `CN1CCN(CCC(=O)Nc2cc(Nc3cc(-c4cc(Cl)ccc4F)nnc3S)ccn2)CC1` [Example 179, N-(4-{[6-(5-chloro-2-fluorophenyl)-3-sulfanylpyridazin-4-yl]amino}pyridin-2-yl)-3-(4-methylpiperazin-1-yl)propanamide], the Ki is 0.126 to 0.316 nM.

As for `CN1CCN(CCC(=O)Nc2cc(Nc3cc(-c4cc(Cl)ccc4F)nnc3N(C)CC3CCOC3=O)ccn2)CC1` (stereo not drawn) [Example 108, N-(4-{[6-(5-chloro-2-fluorophenyl)-3-{methyl[(2-oxooxolan-3-yl)methyl]amino}pyridazin-4-yl]amino}pyridin-2-yl)-3-(4-methylpiperazin-1-yl)propanamide], the Ki is at most 0.1 nM.

In the case of `CN1CCN([C@H]2C[C@H](C(=O)Nc3cc(Nc4cc(-c5cc(Cl)ccc5F)nnc4N(C)C)ccn3)C2)CC1` (single isomer, unassigned) [Example 96, trans N-(4-{[6-(5-chloro-2-fluorophenyl)-3-(dimethylamino)pyridazin-4-yl]amino}pyridin-2-yl)-3-(4-methylpiperazin-1-yl)cyclobutane-1-carboxamide], the Ki was at most 0.1 nM.

As for `COC(=O)c1cc2c(Nc3cc(-c4cc(Cl)ccc4F)nnc3OCCC[N+](C)(C)C)ccnc2[nH]1` [Example 11, (3-{[6-(5-chloro-2-fluorophenyl)-4-{[2-(methoxycarbonyl)-1H-pyrrolo[2,3-b]pyridin-4-yl]amino}pyridazin-3-yl]oxy}propyl)trimethylazanium chloride], the Ki was 0.398 to 3.16 nM.

As for `CN1CCN(CCC(=O)Nc2cc(Nc3cc(-c4cc(Cl)ccc4F)nnc3OC[C@H]3C[C@@H](O)C3)ccn2)CC1` [Example 71, Cis N-(4-{[6-(5-chloro-2-fluorophenyl)-3-[(3-hydroxycyclobutyl)methoxy]pyridazin-4-yl]amino}pyridin-2-yl)-3-(4-methylpiperazin-1-yl)propanamide], the Ki was at most 0.1 nM.

Turning to `CN1CCN([C@H]2C[C@@H](C(=O)Nc3cc(Nc4cc(-c5cc(Cl)ccc5F)nnc4N(C)CC4(C)CCOC4=O)ccn3)C2)CC1` (single isomer, unassigned) [Example 136, Cis N-(4-{[6-(5-chloro-2-fluorophenyl)-3-{methyl[(3-methyl-2-oxooxolan-3-yl)methyl]amino}pyridazin-4-yl]amino}pyridin-2-yl)-3-(4-methylpiperazin-1-yl)cyclobutane-1-carboxamide], the Ki was 0.126 to 0.316 nM.

Turning to `CN1CCN(CCC(=O)Nc2cc(Nc3cc(-c4cc(Cl)ccc4F)nnc3SCCCO)ccn2)CC1` [Example 28, N-(4-{[6-(5-chloro-2-fluorophenyl)-3-[(3-hydroxypropyl)sulfanyl]pyridazin-4-yl]amino}pyridin-2-yl)-3-(4-methylpiperazin-1-yl)propanamide], the Ki is at most 0.1 nM.

On to `CN1CCN(CCC(=O)Nc2cc(Nc3cc(-c4cc(Cl)ccc4F)nnc3SC3(C)CCOC3=O)ccn2)CC1` (racemic) [Example 192, N-(4-{[6-(5-chloro-2-fluorophenyl)-3-[(3-methyl-2-oxooxolan-3-yl)sulfanyl]pyridazin-4-yl]amino}pyridin-2-yl)-3-(4-methylpiperazin-1-yl)propanamide], for which the Ki was 0.126 to 0.316 nM.

As for `COC(=O)[C@H]1CN(c2nnc(-c3cc(Cl)ccc3F)cc2Nc2ccnc(NC(=O)CCN3CCN(C)CC3)c2)CCO1` (stereo in doubt) [Example 133, methyl 4-[6-(5-chloro-2-fluorophenyl)-4-({2-[3-(4-methylpiperazin-1-yl)propanamido]pyridin-4-yl}amino)pyridazin-3-yl]morpholine-2-carboxylate], the inhibitory constant (Ki) is 0.126 to 0.316 nM.

For the compound `CN1CCN(CCC(=O)Nc2cc(Nc3cc(-c4cc(Cl)ccc4F)nnc3SCCO)ncn2)CC1` [Example 176, N-(6-{[6-(5-chloro-2-fluorophenyl)-3-[(2-hydroxyethyl)sulfanyl]pyridazin-4-yl]amino}pyrimidin-4-yl)-3-(4-methylpiperazin-1-yl)propanamide], the Ki was at most 0.1 nM.

As to `CN1CC2CC1CN2CC(=O)Nc1cc(Nc2cc(-c3cc(Cl)ccc3F)nnc2SCCO)ccn1` (stereo not drawn) [Example 25, N-(4-{[6-(5-chloro-2-fluorophenyl)-3-[(2-hydroxyethyl)sulfanyl]pyridazin-4-yl]amino}pyridin-2-yl)-2-{5-methyl-2,5-diazabicyclo[2.2.1]heptan-2-yl}acetamide], the inhibition constant Ki was at most 0.1 nM.

For `COc1nnc(-c2cc(Cl)ccc2F)cc1Nc1ccnc(NC(=O)CCN2CCN(CC(F)(F)F)CC2)c1` [Example 13, N-(4-{[6-(5-chloro-2-fluorophenyl)-3-methoxypyridazin-4-yl]amino}pyridin-2-yl)-3-[4-(2,2,2-trifluoroethyl)piperazin-1-yl]propanamide], the Ki is at most 0.1 nM.

`COC(=O)c1sc(Nc2cc(Nc3cc(-c4cc(Cl)ccc4F)nnc3SCCO)ccn2)cc1C1CCN(C)CC1` [Example 92, methyl 5-[(4-{[6-(5-chloro-2-fluorophenyl)-3-[(2-hydroxyethyl)sulfanyl]pyridazin-4-yl]amino}pyridin-2-yl)amino]-3-(1-methylpiperidin-4-yl)thiophene-2-carboxylate]: the inhibition constant Ki is at most 0.1 nM.

`CN1CCCN(CC(=O)Nc2cc(Nc3cc(-c4cc(Cl)ccc4F)nnc3OC3CCOC3)ccn2)CC1` (single isomer, unassigned) [Example 73, N-(4-{[6-(5-chloro-2-fluorophenyl)-3-(oxolan-3-yloxy)pyridazin-4-yl]amino}pyridin-2-yl)-2-(4-methyl-1,4-diazepan-1-yl)acetamide]: the Ki is at most 0.1 nM.

With `CN1CCN([C@H]2C[C@@H](C(=O)Nc3cc(Nc4cc(-c5cc(Cl)ccc5F)nnc4N(C)CC4(C)CCOC4=O)ccn3)C2)CC1` (single isomer, unassigned) [Example 135, Cis N-(4-{[6-(5-chloro-2-fluorophenyl)-3-{methyl[(3-methyl-2-oxooxolan-3-yl)methyl]amino}pyridazin-4-yl]amino}pyridin-2-yl)-3-(4-methylpiperazin-1-yl)cyclobutane-1-carboxamide], the Ki is at most 0.1 nM.

Consider `Nc1cc(Nc2cc(-c3cc(Cl)ccc3F)nnc2OCC(F)F)ccn1` [Example 53, N4-[6-(5-chloro-2-fluorophenyl)-3-(2,2-difluoroethoxy)pyridazin-4-yl]pyridine-2,4-diamine], for which the Ki is 0.398 to 3.16 nM.

Regarding `CSc1nnc(-c2cc(Cl)ccc2F)cc1Nc1ccnc(NC(=O)CCN2CCNCC2)c1` [Example 62, N-(4-{[6-(5-chloro-2-fluorophenyl)-3-(methylsulfanyl)pyridazin-4-yl]amino}pyridin-2-yl)-3-(piperazin-1-yl)propanamide], the Ki is at most 0.1 nM.

Turning to `C[C@@H]1CN(CCC(=O)Nc2cc(Nc3cc(-c4cc(Cl)ccc4F)nnc3SCCO)ncn2)C[C@H](C)N1` [Example 177, N-(6-{[6-(5-chloro-2-fluorophenyl)-3-[(2-hydroxyethyl)sulfanyl]pyridazin-4-yl]amino}pyrimidin-4-yl)-3-(3,5-dimethylpiperazin-1-yl)propanamide], the Ki is at most 0.1 nM.

`CN1CCN(CCC(=O)Nc2cc(Nc3cc(-c4cc(Cl)ccc4F)nnc3SCCOCCO)ccn2)CC1` [Example 194, N-(4-{[6-(5-chloro-2-fluorophenyl)-3-{[2-(2-hydroxyethoxy)ethyl]sulfanyl}pyridazin-4-yl]amino}pyridin-2-yl)-3-(4-methylpiperazin-1-yl)propanamide]: the Ki is at most 0.1 nM.

For `CN(CCC(O)C(F)(F)F)c1nnc(-c2cc(Cl)ccc2F)cc1Nc1ccnc(NC(=O)CN2C[C@@H]3C[C@H]2CN3C)c1` (single isomer, unassigned) [Example 131], the Ki is at most 0.1 nM.

On to `CN1CCN([C@H]2C[C@@H](C(=O)Nc3cc(Nc4cc(-c5cc(Cl)ccc5F)nnc4SCCO)ncn3)C2)CC1` [Example 91, Cis N-(6-{[6-(5-chloro-2-fluorophenyl)-3-[(2-hydroxyethyl)sulfanyl]pyridazin-4-yl]amino}pyrimidin-4-yl)-3-(4-methylpiperazin-1-yl)cyclobutane-1-carboxamide], for which the inhibition constant (Ki) is 0.126 to 0.316 nM.

In the case of `CN1CCN(CCC(=O)Nc2cc(Nc3cc(-c4cc(Cl)ccc4F)nnc3N(C)[C@@H]3CCOC3)ccn2)CC1` (single isomer, unassigned) [Example 107, N-(4-{[6-(5-chloro-2-fluorophenyl)-3-[methyl(oxolan-3-yl)amino]pyridazin-4-yl]amino}pyridin-2-yl)-3-(4-methylpiperazin-1-yl)propanamide], the Ki is at most 0.1 nM.

These data come from patent publication US20250011299A1, “PYRIDAZINYL AMINO DERIVATIVES AS ALK5 INHIBITORS” (CHIESI FARMACEUTICI S.P.A., priority 2021, published 2025).
